Laboratory results taken from patent US7709002B1, “Mutated ras peptides for generation of CD8+Cytotoxic T lymphocytes” (The United States of America as represented by the …, priority 1996, dated 2010).
Where no end group is shown, it is not given here.

Columns and labels:
[1] = tested on: T2 cell line as target of CD8+ CTL line of RAS patient 32; assay: 51Cr-release cytotoxicity of CD8+ CTL line of RAS patient 32 against peptide-pulsed T2 targets; type: cell-based, human; settings: peptide 10 μg/ml, IVS cycle 7 (FIG. 5)
Experimental: FIG. 5. Cytolytic activity by CD8^+ CTL line of RAS patient 32 is peptide-specific. The CD8^+ CTL line of RAS patient 32 (see FIG. 3) was assayed against the T2 cell line as a target, incubated with and without different ras peptides (10 μg/ml), as shown. In parallel, the extent of NK activity was evaluated against K562 cells. Cytotoxicity was determined by ^51Cr-release, and the results expressed at different E/T ratios following IVS cycle 7. Similar results were observed using the second, independently-derived CD8^+ CTL line as described in Table 6.
IVS cycles for evaluation of CD8^+ T cell responses from HLA-A2+Patients. Freshly-thawed PBMC (from ras patients 32 and 33), derived pre-vaccination and post-third vaccination, were enriched in T lymphocytes by passage over nylon wool columns (Robbins Scientific, Sunnyvale, Calif.) and then depleted of CD4^+ T cells by negative selection via panning on anti-CD4 MAb-coated T25 flasks (Applied Immune Sciences, Santa Clara, Calif.). For the first IVS cycle, CD8^+ enriched lymphocytes (5×10^5/well) were cultured in 24-well plates with irradiated, autologous PBMC (5×10^6/well) as APC which had been preincubated for 3 hours with the appropriate mutant ras peptide ([…]) plus human β2-microglobulin (10 μg/ml) (Calbiochem, San Diego, Calif.). […] IL-2 (10 U/ml) was added 3 days later. After an additional 7 days, viable cells (2-5×10^5/well) were re-cultured by weekly stimulation with APC pre-pulsed with peptide/β2-microglobulin, and IL-2 added one day later. After the third or fourth IVS cycle, autologous PBMC were replaced with EBV-transformed, autologous BLCL (5×10^5/well) as APC. […] CTL activity was evaluated from cultures 5 to 6 days after Ag restimulation.
Cytotoxic response. Cytotoxicity was examined by a conventional ^51Cr-release assay, as described (6). Briefly, target cells (i.e. T2, C1R-A2, BLCL, K562) were radiolabeled with 200 μCi of Na2[^51Cr]04 (Amersham) for 60 minutes at 37° C., followed by thorough washing to remove unincorporated isotope. Effectors and targets (1×10^4/well) were incubated in 96-well, U-bottomed plates (Costar) at various effector target (E/T) ratios in the absence and presence of peptide (+/−monoclonal antibody (MAb) directed against CD4, CD8 or HLA-A2 molecules (clone BB7.2 from ATCC)) for up to 6 hours. After incubation, supernatants were collected using a Supernatant Collection System (Skatron, Sterling, Va.) and radioactivity measured in a γ-counter (Packard Instruments, Downers Grove, Ill.). Cytotoxic activity was defined as percent specific release of ^51Cr and determined by the equation: [(experimentalcpm−spontaneouscpm)/maximumcpm−spontaneouscpm)]×100. Results were expressed as the mean±SEM of triplicate cultures. […]

[2] = tested on: post-vaccine PBMC of patient 32; assay: Lymphoproliferation of post-vaccine PBMC of patient 32; type: cell-based, human; settings: multiple IVS cycles
[3] = tested on: ras p21 codon 12 mutated carcinoma patients; assay: Phase I vaccination of metastatic carcinoma patients with mutant ras 13-mer peptide in Detox adjuvant; type: in vivo, human; settings: patient 32, 0.1 mg/vaccination x3 in Detox adjuvant, s.c.
Source text: Patient selection. Adult cancer patients with histologically confirmed diagnosis of adenocarcinoma of the colon, gastrointestinal tract, lung or pancreas with metastatic disease, were screened as potential candidates for this phase I clinical study. Tumor samples from these patients were examined for point mutations in the K-ras gene at codon 12 by polymerase chain reaction (PCR) of paraffin-embedded sections by methods known in the art. In addition to fulfilling all other essential inclusion criteria as specified in the FDA-approved NCI clinical protocol, those patients presenting the appropriate K-ras mutation were then selected for study entry.
Peptides and immunizations. Mutant ras 13-mer peptides used as immunogens were synthesized as clinical grade reagents under GMP conditions (Bachem, Torrance, Calif.: >97% purity by HPLC). Control and additional experimental peptides, which were used in vitro, either were prepared commercially (Bachem) or synthesized in the laboratory on an Applied Biosystems Model 432A personal peptide synthesizer (Foster City, Calif.) using Fmoc chemistry (>90% purity by HPLC). These reagent-grade products were dissolved in aqueous solution at 2 mg/ml, filter-sterilized and stored in aliquots at −70° C. The normal sequence of ras p21 reflecting positions 5-17 is […]([…]) (SEQ. ID NO. 1). […]

human HLA-A2 = target: T1, human HLA-A2 (Homo sapiens, UniProt P04439, D140Y/D185E/D98H/E176V/E277Q/G131W/G231S/I119V/I121R/I166T/I218V/L300P/L318F/N151K/N90K/P208A/P217A/Q86G/Q94H/R138H/R169H/T345S); assay: HLA-A2 binding bioassay on T2 cells (flow cytometry); settings: T2 bioassay
T1 construct: The 174CEM.T2 cell line (“T2”), (transport deletion mutant); endogenous in cells; host or cells: 174CEM.T2 (T2) human cell line

BALB/c mouse = assay: Induction of MHC class I-restricted CD8+ CTL responses in the mouse; type: in vivo, mouse (BALB/c; H-2^d); settings: H-2^d
Source text: The basis of immunogenicity, in part, was attributed to the introduction of the mutated Val12 residue, which created a dominant C-terminus anchor for MHC class I binding. The resulting CD8^+ CTL response, thus, likely reflected T cell receptor recognition of a previously unseen peptide/MHC complex. In contrast to the ras5-14 sequence, ras4-12(V12) only partly shared the consensus motif for HLA-A2 binding, as the leucine anchor shifted from position 2 to 3. Importantly, the introduction of the mutated Val12 residue, as in the mouse, now created a dominant C-terminus anchor. […] (See FIG. 6).

[4] = tested on: HLA-A2+ peptide-pulsed targets; assay: Generation and cytotoxicity of ras4-12(V12)-specific CD8+ CTL line from a normal HLA-A2+ donor; type: cell-based, human; settings: wild-type printed as wild-type ras peptide

| Substance | Sensitization of T2 targets for lysis (in words) [1] | CD4+ proliferative response against immunizing 13-mer peptide [2] | T cell response induced by vaccination [3] | Binding to HLA-A2 on T2 cells (in words) (human HLA-A2) | Induction of CD8+ CTL responses in mouse (BALB/c mouse) | Generation of peptide-specific CTL line / lysis of peptide-pulsed targets (in words) [4] |
| --- | --- | --- | --- | --- | --- | --- |
| Lys-Leu-Val-Val-Val-Gly-Ala-Asp-Gly-Val-Gly-Lys-Ser [ras5-17(Asp12)] | did not appear to induce cytotoxicity | No specific CD4^+ proliferative response was observed | led to peptide-specific CD8^+ CTL activation |  |  |  |
| YKLVVVGAV [ras4-12(V12)] |  |  |  | specific, albeit weak, binding to HLA-A2 | resulted in the induction of MHC class I-restricted CD8^+ CTL responses | A CD8^+ CTL line specific for ras4-12(V12) was then derived |
